Test results as given in PubChem BioAssay (NCI).
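The compound was tested at five concentrations on cells cultured in 96-well plates, with a 48-hour exposure period. GI50 is the concentration that inhibits growth by half. TGI is the concentration that stops growth completely.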

Columns and labels:
Test in all cases: DTP human tumour cell line panel, 48 h
MCF7 breast = tested on: MCF7 breast
MOLT-4 leukemia = tested on: MOLT-4 leukemia
OVCAR-8 ovarian = tested on: OVCAR-8 ovarian
HOP-62 NSCLC = tested on: HOP-62 NSCLC
HCT-116 colon = tested on: HCT-116 colon
SNB-19 CNS = tested on: SNB-19 CNS
KM12 colon = tested on: KM12 colon
SK-MEL-5 melanoma = tested on: SK-MEL-5 melanoma
CCRF-CEM leukemia = tested on: CCRF-CEM leukemia
SK-MEL-28 melanoma = tested on: SK-MEL-28 melanoma
SF-295 CNS = tested on: SF-295 CNS
HT29 colon = tested on: HT29 colon
SNB-75 CNS = tested on: SNB-75 CNS
MDA-MB-435 = tested on: MDA-MB-435
PC-3 prostate = tested on: PC-3 prostate
HOP-92 NSCLC = tested on: HOP-92 NSCLC
ACHN renal = tested on: ACHN renal
OVCAR-3 ovarian = tested on: OVCAR-3 ovarian
OVCAR-4 ovarian = tested on: OVCAR-4 ovarian
RPMI-8226 leukemia = tested on: RPMI-8226 leukemia
CAKI-1 renal = tested on: CAKI-1 renal
T-47D breast = tested on: T-47D breast
BT-549 breast = tested on: BT-549 breast
RXF 393 renal = tested on: RXF 393 renal
TK-10 renal = tested on: TK-10 renal
HS 578T breast = tested on: HS 578T breast
UO-31 renal = tested on: UO-31 renal
HCC-2998 colon = tested on: HCC-2998 colon
NCI-H226 lung = tested on: NCI-H226 lung
M14 melanoma = tested on: M14 melanoma
COLO 205 colon = tested on: COLO 205 colon
SR leukemia = tested on: SR leukemia
SF-268 CNS = tested on: SF-268 CNS
786-0 renal = tested on: 786-0 renal
SK-OV-3 ovarian = tested on: SK-OV-3 ovarian
EKVX NSCLC = tested on: EKVX NSCLC
NCI/ADR-RES ovarian = tested on: NCI/ADR-RES ovarian
UACC-257 melanoma = tested on: UACC-257 melanoma
A549 NSCLC = tested on: A549 NSCLC
NCI-H522 lung = tested on: NCI-H522 lung
NCI-H460 lung = tested on: NCI-H460 lung
MDA-MB-231 breast = tested on: MDA-MB-231 breast
HCT-15 colon = tested on: HCT-15 colon
K-562 leukemia = tested on: K-562 leukemia
U251 CNS = tested on: U251 CNS
OVCAR-5 ovarian = tested on: OVCAR-5 ovarian
MALME-3M melanoma = tested on: MALME-3M melanoma
UACC-62 melanoma = tested on: UACC-62 melanoma
SW-620 colon = tested on: SW-620 colon
SK-MEL-2 melanoma = tested on: SK-MEL-2 melanoma
NCI-H23 lung = tested on: NCI-H23 lung
IGROV1 ovarian = tested on: IGROV1 ovarian
HL-60(TB) leukemia = tested on: HL-60(TB) leukemia
A498 renal = tested on: A498 renal
DU-145 prostate = tested on: DU-145 prostate
SF-539 CNS = tested on: SF-539 CNS
SN12C renal = tested on: SN12C renal

SMILES: CO[C@H]1CC(O[C@@H]2/C(C)=C/C[C@@H]3C[C@@H](C[C@]4(C=C[C@H](C)[C@@H](C5CCCCC5)O4)O3)OC(=O)[C@@H]3C=C(C)[C@@H](O)[C@H]4OC/C(=C\C=C\[C@@H]2C)[C@]43O)O[C@@H](C)C1O[C@H]1C[C@H](OC)[C@@H](O)[C@H](C)O1 (stereo partly specified)
- GI50 (MCF7 breast): 1.82 µM
- TGI (MCF7 breast): 5.84 µM
- GI50 (MOLT-4 leukemia): 2.05 µM
- TGI (MOLT-4 leukemia): 4.83 µM
- GI50 (OVCAR-8 ovarian): 2.07 µM
- TGI (OVCAR-8 ovarian): 5.29 µM
- GI50 (HOP-62 NSCLC): 1.73 µM
- TGI (HOP-62 NSCLC): 3.22 µM
- GI50 (HCT-116 colon): 1.4 µM
- TGI (HCT-116 colon): 2.72 µM
- GI50 (SNB-19 CNS): 2.03 µM
- TGI (SNB-19 CNS): 6.52 µM
- GI50 (KM12 colon): 1.77 µM
- TGI (KM12 colon): 3.54 µM
- GI50 (SK-MEL-5 melanoma): 1.41 µM
- TGI (SK-MEL-5 melanoma): 2.77 µM
- GI50 (CCRF-CEM leukemia): 1.88 µM
- TGI (CCRF-CEM leukemia): 4.4 µM
- GI50 (SK-MEL-28 melanoma): 1.58 µM
- TGI (SK-MEL-28 melanoma): 3.03 µM
- GI50 (SF-295 CNS): 1.33 µM
- TGI (SF-295 CNS): 2.83 µM
- GI50 (HT29 colon): 1.87 µM
- TGI (HT29 colon): 3.85 µM
- GI50 (SNB-75 CNS): 1.45 µM
- TGI (SNB-75 CNS): 3.6 µM
- GI50 (MDA-MB-435): 1.57 µM
- TGI (MDA-MB-435): 3.13 µM
- GI50 (PC-3 prostate): 1.08 µM
- TGI (PC-3 prostate): 2.68 µM
- GI50 (HOP-92 NSCLC): 0.301 µM
- TGI (HOP-92 NSCLC): 1.89 µM
- GI50 (ACHN renal): 1.66 µM
- TGI (ACHN renal): 3.04 µM
- GI50 (OVCAR-3 ovarian): 1.66 µM
- TGI (OVCAR-3 ovarian): 3.12 µM
- GI50 (OVCAR-4 ovarian): 1.52 µM
- TGI (OVCAR-4 ovarian): 2.88 µM
- GI50 (RPMI-8226 leukemia): 1.39 µM
- TGI (RPMI-8226 leukemia): 4.38 µM
- GI50 (CAKI-1 renal): 1.22 µM
- TGI (CAKI-1 renal): 2.73 µM
- GI50 (T-47D breast): 1.65 µM
- TGI (T-47D breast): 3.43 µM
- GI50 (BT-549 breast): 1.78 µM
- TGI (BT-549 breast): 3.24 µM
- GI50 (RXF 393 renal): 1.18 µM
- TGI (RXF 393 renal): 2.46 µM
- GI50 (TK-10 renal): 1.84 µM
- TGI (TK-10 renal): 3.51 µM
- GI50 (HS 578T breast): 2.45 µM
- TGI (HS 578T breast): > 100 µM
- GI50 (UO-31 renal): 1.4 µM
- TGI (UO-31 renal): 2.71 µM
- GI50 (HCC-2998 colon): 1.51 µM
- TGI (HCC-2998 colon): 3 µM
- GI50 (NCI-H226 lung): 1.45 µM
- TGI (NCI-H226 lung): 2.95 µM
- GI50 (M14 melanoma): 1.67 µM
- TGI (M14 melanoma): 3.13 µM
- GI50 (COLO 205 colon): 2.03 µM
- TGI (COLO 205 colon): 3.71 µM
- GI50 (SR leukemia): 1.86 µM
- TGI (SR leukemia): 4.62 µM
- GI50 (SF-268 CNS): 1.69 µM
- TGI (SF-268 CNS): 3.18 µM
- GI50 (786-0 renal): 1.54 µM
- TGI (786-0 renal): 3.14 µM
- GI50 (SK-OV-3 ovarian): 1.97 µM
- TGI (SK-OV-3 ovarian): 3.61 µM

SMILES: O=C(/C=C/c1cc2ccccc2[nH]c1=O)/C=C/c1cc2ccccc2[nH]c1=O
- GI50 (MCF7 breast): 3.84 µM
- TGI (MCF7 breast): > 47.7 µM
- GI50 (MOLT-4 leukemia): 24 µM
- TGI (MOLT-4 leukemia): > 100 µM
- GI50 (OVCAR-8 ovarian): 9.84 µM
- TGI (OVCAR-8 ovarian): > 72.8 µM
- GI50 (HOP-62 NSCLC): 14.5 µM
- TGI (HOP-62 NSCLC): > 76.9 µM
- GI50 (HCT-116 colon): 1.28 µM
- TGI (HCT-116 colon): 2.09 µM
- GI50 (EKVX NSCLC): 22.5 µM
- TGI (EKVX NSCLC): > 100 µM
- GI50 (SNB-19 CNS): 21.1 µM
- TGI (SNB-19 CNS): > 100 µM
- GI50 (NCI/ADR-RES ovarian): > 78 µM
- TGI (NCI/ADR-RES ovarian): > 100 µM
- GI50 (UACC-257 melanoma): 8.32 µM
- TGI (UACC-257 melanoma): 19.6 µM
- GI50 (KM12 colon): 4.32 µM
- TGI (KM12 colon): 8.59 µM
- GI50 (SK-MEL-5 melanoma): 23.5 µM
- TGI (SK-MEL-5 melanoma): > 100 µM
- GI50 (CCRF-CEM leukemia): 7.97 µM
- TGI (CCRF-CEM leukemia): > 100 µM
- TGI (A549 NSCLC): > 59.2 µM
- GI50 (SK-MEL-28 melanoma): 14.8 µM
- TGI (SK-MEL-28 melanoma): > 66.5 µM
- GI50 (SF-295 CNS): > 25.3 µM
- TGI (SF-295 CNS): > 86.2 µM
- GI50 (SNB-75 CNS): > 26.3 µM
- TGI (SNB-75 CNS): > 67.5 µM
- TGI (MDA-MB-435): > 20 µM
- TGI (NCI-H522 lung): > 47 µM
- GI50 (PC-3 prostate): > 21.5 µM
- TGI (PC-3 prostate): > 81.1 µM
- GI50 (HOP-92 NSCLC): > 100 µM
- TGI (HOP-92 NSCLC): > 100 µM
- GI50 (NCI-H460 lung): 32.3 µM
- TGI (NCI-H460 lung): > 100 µM
- GI50 (ACHN renal): 11.2 µM
- TGI (ACHN renal): > 95.3 µM
- GI50 (MDA-MB-231 breast): 15.4 µM
- TGI (MDA-MB-231 breast): > 100 µM
- GI50 (OVCAR-3 ovarian): 12.1 µM
- TGI (OVCAR-3 ovarian): > 63.5 µM
- GI50 (HCT-15 colon): 9.96 µM
- TGI (HCT-15 colon): > 100 µM
- GI50 (OVCAR-4 ovarian): 19.2 µM
- TGI (OVCAR-4 ovarian): > 100 µM
- GI50 (RPMI-8226 leukemia): 4.02 µM
- TGI (RPMI-8226 leukemia): > 40.1 µM
- GI50 (CAKI-1 renal): 15.2 µM
- TGI (CAKI-1 renal): > 100 µM
- GI50 (T-47D breast): 11.6 µM
- TGI (T-47D breast): > 100 µM
- GI50 (K-562 leukemia): > 23.1 µM
- TGI (K-562 leukemia): > 100 µM
- GI50 (U251 CNS): 4.53 µM
- TGI (U251 CNS): 12.1 µM
- GI50 (BT-549 breast): 6.86 µM
- TGI (BT-549 breast): 12.4 µM
- GI50 (OVCAR-5 ovarian): > 49 µM
- TGI (OVCAR-5 ovarian): > 100 µM
- GI50 (RXF 393 renal): 6.88 µM
- TGI (RXF 393 renal): 10.8 µM
- GI50 (MALME-3M melanoma): > 59.6 µM
- TGI (MALME-3M melanoma): > 100 µM
- GI50 (TK-10 renal): 11.6 µM
- TGI (TK-10 renal): > 60.7 µM
- GI50 (UACC-62 melanoma): 16.9 µM
- TGI (UACC-62 melanoma): 97.8 µM
- GI50 (HS 578T breast): > 39.9 µM
- TGI (HS 578T breast): > 100 µM
- GI50 (SW-620 colon): 6.34 µM
- TGI (SW-620 colon): 14.8 µM
- GI50 (SK-MEL-2 melanoma): > 24.7 µM
- TGI (SK-MEL-2 melanoma): > 30.6 µM
- GI50 (UO-31 renal): > 100 µM
- TGI (UO-31 renal): > 100 µM
- GI50 (NCI-H23 lung): 9.25 µM
- TGI (NCI-H23 lung): 48.9 µM
- GI50 (IGROV1 ovarian): > 19.7 µM
- TGI (IGROV1 ovarian): > 49.3 µM
- GI50 (HCC-2998 colon): 5.28 µM
- TGI (HCC-2998 colon): 9.01 µM
- GI50 (HL-60(TB) leukemia): > 32.3 µM
- TGI (HL-60(TB) leukemia): > 100 µM
- GI50 (NCI-H226 lung): 14.9 µM
- TGI (NCI-H226 lung): 38.1 µM
- GI50 (A498 renal): > 50.1 µM
- TGI (A498 renal): > 100 µM
- GI50 (COLO 205 colon): 10.2 µM
- TGI (COLO 205 colon): > 59.7 µM
- GI50 (SR leukemia): 6.42 µM
- TGI (SR leukemia): > 100 µM
- GI50 (DU-145 prostate): 12.3 µM
- TGI (DU-145 prostate): > 70.3 µM
- GI50 (SF-268 CNS): 18 µM
- TGI (SF-268 CNS): 99.7 µM
- GI50 (SF-539 CNS): 9.13 µM
- TGI (SF-539 CNS): > 75.9 µM
- GI50 (SN12C renal): 12.6 µM
- TGI (SN12C renal): > 86.6 µM
- TGI (786-0 renal): > 26.1 µM
- GI50 (SK-OV-3 ovarian): 31.4 µM
- TGI (SK-OV-3 ovarian): > 100 µM
